Results reported in patent US9688624B2, “DP2 antagonist and uses thereof” (Brickell Biotech, Inc., priority 2010, dated 2017).
Counter-ions that a name gives are not always drawn. Like-named read-outs stand apart in the source and are kept apart here.

Assays:
[1] = Plasma exposure in satellite group of mouse allergic rhinitis model; assay type: in vivo; details: Compound 2 10 mg/kg PO
Experimental: Compound 2 was evaluated in a mouse model of ovalbumin (OVA)-induced allergic rhinitis in which nasal ovalbumin challenges to OVA-primed mice elicits an increase in sneezing and nasal rubs (Methods were adapted from those detailed in Nakaya, M., et al. 2006, Laboratory Investigation, 86:917-926). OVA-primed mice received an intranasal challenge of OVA daily for 5 consecutive days. The number of sneezes and nasal rubs were counted over an 8 minute recording session on days 1, 3 and 5 immediately following OVA challenge. OVA caused a significant increase in both sneezing behavior and nasal rubs when compared to intranasal phosphate buffered saline (PBS) challenge. […] The plasma exposure for Compound 1 measured in a satellite group was 1360 nM, 460 nM, 210 nM and 90 nM for time points 1, 2, 4, and 6 hr post-dose, respectively.

[2] = target: T1, DP2 receptor (Homo sapiens (Human), UniProt Q9Y5Y4); test: In vitro DP2/CRTH2 radioligand ([3H]PGD2) membrane binding assay
Experimental: Example 15: In Vitro DP2/CRTH2 Binding Assay
The ability of Compound 1 to bind to the human DP2 receptor was assessed via a radioligand binding assay using [^3H]PGD2. HEK293 cells stably expressing recombinant human DP2 are resuspended in 10 mM Hepes, 7.4 containing 1 mM DTT, lysed and centrifuged at 75,000×g to pellet the membranes. The membranes are resuspended in 10 mM Hepes, 7.4 containing 1 mM DTT and 10% glycerol to approximately 5 mg protein/ml. […] The reactions are terminated by rapid filtration through Whatman GF/C glass fibre filter plates. The filter plates were pre-soaked in 0.33% polythylenimine for 30 minutes at room temperature then washed in Wash Buffer (50 mM Hepes, 0.5 M NaCl pH 7.4) prior to harvesting. After harvesting, the filter plates are washed 3 times with 1 ml cold Wash Buffer then dried. Scintillant is then added to the plates and the radioactivity retained on the filters is determined on a Packard TopCount (Perkin Elmer). Specific binding is determined as total radioactive binding minus non-specific binding in the presence of 10 μM PGD2. IC50s were determined using GraphPad prism analysis of drug titration curves. Mouse, rat and guinea pig DP2 receptors were also investigated.
The binding potency of Compound 1 is only slightly shifted in the presence of species-specific serum albumin.

[3] = target: CYP3A4 (Homo sapiens (Human), UniProt P08684); test: Extracellular cytochrome P450 inhibition (microsomes); assay type: in vitro ADME
[4] = target: CYP2C19 (Homo sapiens (Human), UniProt P33261); test: as above; details: IC50 (μM), 2C19, mephenytoin 4′-hydroxylation
[5] = Phase I single ascending dose study, safety and tolerability; assay type: in vivo, human; details: humans, capsule, 5 to 500 mg single doses
Text: To assess: (1) the safety and tolerability of single and multiple doses of Compound 2 following oral administration; and (2) the pharmacokinetics (PK) of Compound 2 after single and multiple doses; and (3) the effects of the pharmacodynamic (PD) responses in healthy subjects to Compound 2 as measured by a PGD2-induced eosinophil shape change assay (ESC).
The Single Ascending Dose (SAD) study will include 6 cohorts with 8 subjects each, 6 receiving the active treatment and 2 receiving the placebo. The SAD study will explore doses of 5, 15, 50, 150, 300 and 500 mg/day. Compound 2 (Pattern 1) is administered as API in a Capsule, prepared on site at the clinical pharmacy (see Example 10). Safety monitoring will include: a “how do you feel” (HDYF) question, adverse events reporting, physical examinations, vital signs, ECG's, and a biological assessment (clinical chemistry, hematology and urinalysis). The decision to escalate to the next dose level will be based on the results of medical monitoring, and a blinded interim analysis of pharmacokinetic parameters (AUC, Cmax) and pharmacodynamic responses. Doses may be adjusted based on the occurrence of adverse events. Subjects will be followed on site for 72 hours after dose administration.

[6] = Regional dosing study in rat (pharmacokinetics); assay type: in vivo; details: for Tmax / AUC / Cmax / bioavailability / half-life: Sprague-Dawley, in vivo
Text: Example 11: Regional Dosing Study
Male Sprague-Dawley rats (weighing from about 200 to about 300 grams) in the fasted state received a single injection of a solution of Compound 2 (5% methocel) in the duodenum, jejunum or ileum. This was compared with PO administration of the same formulation of Compound 2. […]

[7] = target: T1, DP2 receptor; test: Phase I single ascending dose study, ex vivo PGD2-induced blood eosinophil shape change (ESC); assay type: in vivo; details: humans
Experimental: Procedure Evaluate Effects of Compound 1 on Ex Vivo PGD2-Induced Blood Eosinophil Shape Change (ESC)
Pre dose blood is drawn and challenged with PGD2 to determine baseline shape change as described above in Example 17. At varying times after dosing blood is drawn for both pharmacokinetic analyses of drug concentration in blood, and also for PGD2 challenge and eosinophil shape change determination. The extent of receptor blockage is determined from the relationship between drug blood concentration and percentage inhibition of eosinophil shape change.

T1 sequence (Q9Y5Y4 whole entry): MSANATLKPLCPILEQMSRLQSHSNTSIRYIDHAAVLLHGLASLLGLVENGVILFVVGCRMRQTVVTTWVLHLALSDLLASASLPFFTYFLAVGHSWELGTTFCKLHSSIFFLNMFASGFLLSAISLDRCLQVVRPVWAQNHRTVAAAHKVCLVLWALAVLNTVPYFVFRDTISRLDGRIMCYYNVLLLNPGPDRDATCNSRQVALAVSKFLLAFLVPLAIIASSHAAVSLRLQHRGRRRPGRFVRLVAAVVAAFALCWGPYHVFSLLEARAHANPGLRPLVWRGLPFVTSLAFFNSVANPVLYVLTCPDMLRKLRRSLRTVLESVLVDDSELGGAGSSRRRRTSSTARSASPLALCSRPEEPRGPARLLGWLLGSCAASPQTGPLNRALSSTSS
Sequence of CYP3A4 (P08684 whole entry): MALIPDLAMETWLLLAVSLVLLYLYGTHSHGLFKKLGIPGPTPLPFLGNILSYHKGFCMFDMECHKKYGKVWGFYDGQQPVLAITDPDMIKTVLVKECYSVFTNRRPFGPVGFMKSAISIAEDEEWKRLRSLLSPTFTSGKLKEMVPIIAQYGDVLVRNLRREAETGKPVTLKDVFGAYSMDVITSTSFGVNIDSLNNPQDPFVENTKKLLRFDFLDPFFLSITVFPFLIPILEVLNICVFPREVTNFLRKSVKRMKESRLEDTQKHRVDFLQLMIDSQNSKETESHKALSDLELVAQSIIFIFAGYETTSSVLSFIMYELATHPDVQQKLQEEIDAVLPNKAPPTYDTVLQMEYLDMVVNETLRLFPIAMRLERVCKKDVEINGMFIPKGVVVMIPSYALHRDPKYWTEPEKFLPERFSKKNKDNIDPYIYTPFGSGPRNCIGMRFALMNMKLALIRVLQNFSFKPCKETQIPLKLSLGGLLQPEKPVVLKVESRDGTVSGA
Sequence of CYP2C19 (P33261 whole entry): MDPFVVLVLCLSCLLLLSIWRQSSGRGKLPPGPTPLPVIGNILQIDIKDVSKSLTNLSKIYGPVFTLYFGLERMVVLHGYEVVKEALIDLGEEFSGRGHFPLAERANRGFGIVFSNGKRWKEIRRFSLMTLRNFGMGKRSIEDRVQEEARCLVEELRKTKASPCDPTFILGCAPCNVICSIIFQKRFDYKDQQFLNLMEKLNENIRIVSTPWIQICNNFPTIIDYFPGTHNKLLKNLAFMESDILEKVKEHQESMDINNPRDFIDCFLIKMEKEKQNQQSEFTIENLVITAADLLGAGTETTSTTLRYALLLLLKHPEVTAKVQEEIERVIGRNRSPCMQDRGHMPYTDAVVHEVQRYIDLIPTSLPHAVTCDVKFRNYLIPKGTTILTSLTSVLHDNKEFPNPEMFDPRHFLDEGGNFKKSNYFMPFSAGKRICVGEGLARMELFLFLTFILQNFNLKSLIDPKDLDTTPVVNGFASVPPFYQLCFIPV

`COc1ccc(CC(=O)O)cc1Oc1ccc(NC(=O)C(C)(C)C)cc1CSC(C)(C)C` [Compound 1, 2-(3-(2-((tert-butylthio)methyl)-4-(2,2-dimethyl-propionylamino)phenoxy)-4-methoxyphenyl)acetic acid] gave a concentration at 1 h ([1]; 1 hr post-dose) of 1360 nM, a concentration at 2 h ([1]; 2 hr post-dose, read-out: plasma exposure for Compound 1) of 460 nM and a concentration at 4 h ([1]; 4 hr post-dose, read-out: plasma exposure for Compound 1) of 210 nM. The concentration at 6 h ([1]; 6 hr post-dose, read-out: plasma exposure for Compound 1) was 90 nM, the IC50 ([2]; average, 0.2% species-specific albumin, read-out: IC50, radioligand membrane binding on human DP2) was 19.7 nM and the IC50 ([2]; average, without serum albumin, read-out: IC50, inhibition of radiolabeled PGD2 binding to human DP2) was 5.2 nM. For the same compound, the IC50 ([2]; in the presence of 0.5% serum albumin, read-out: IC50, binding to DP2) was 19.7 nM.
`COc1ccc(CC(=O)O)cc1Oc1ccc(NC(=O)C(C)(C)C)cc1CSC(C)(C)C` [Compound 2, 2-(3-(2-((tert-butylthio)methyl)-4-(2,2-dimethyl-propionylamino)phenoxy)-4-methoxyphenyl)acetic acid, sodium salt] showed an IC50 ([3]; 3A4, midazolam 1-hydroxylation, read-out: IC50) greater than 50000 nM, an IC50 ([3]; 3A4, testosterone 6β-hydroxylation, read-out: IC50) of 26000 nM and an IC50 ([3]; not a potent inhibitor, read-out: IC50, CYP3A4 (summary statement)) greater than 25000 nM. For the same compound, the IC50 [4] was greater than 50 µM, the tolerability [5] was “well tolerated” and the Tmax ([6]; iv, 2 mg/kg) was 0.08 h. For the same compound, the AUC ([6]; male, 10 mg/kg, duodenum) was 5010 ng·h/mL, the Cmax ([6]; male, 10 mg/kg, duodenum) was 4310 ng/mL and the Tmax ([6]; male, 10 mg/kg, duodenum) was 0.25 h. The bioavailability ([6]; male, 10 mg/kg, duodenum) was 27.3%, the half-life ([6]; male, 10 mg/kg, duodenum) was 4.12 h and the AUC ([6]; male, 10 mg/kg, ileum) was 1980 ng·h/mL. It also gave a Cmax ([6]; male, 10 mg/kg, ileum) of 610 ng/mL, a Tmax ([6]; male, 10 mg/kg, ileum) of 0.63 h and a bioavailability ([6]; male, 10 mg/kg, ileum) of 10.8%. The half-life ([6]; male, 10 mg/kg, ileum) was 5.06 h, the AUC ([6]; male, 10 mg/kg, jejunum) was 8110 ng·h/mL and the Cmax ([6]; male, 10 mg/kg, jejunum) was 12700 ng/mL. The Tmax ([6]; male, 10 mg/kg, jejunum) was 0.25 h, the bioavailability ([6]; male, 10 mg/kg, jejunum) was 44.2% and the half-life ([6]; male, 10 mg/kg, jejunum) was 5.29 h. It also gave an AUC ([6]; male, iv, 2 mg/kg) of 3670 ng·h/mL, a half-life ([6]; male, iv, 2 mg/kg) of 2 h and an AUC ([6]; male, po, 10 mg/kg) of 4370 ng·h/mL. The Cmax ([6]; male, po, 10 mg/kg) was 3060 ng/mL, the Tmax ([6]; male, po, 10 mg/kg) was 0.75 h and the bioavailability ([6]; male, po, 10 mg/kg) was 23.8%. The half-life ([6]; male, po, 10 mg/kg) was 1.5 h, the site of absorption ([6]; regional dosing) was “preferentially absorbed in the jejunum” and the “24 hr PD response (inhibition of ex vivo ESC)” value ([7]; 500 mg single dose, 24 hr) was roughly 50%. For the same compound, the “pharmacodynamic dose response (ex vivo ESC inhibition)” value ([7]; >150 mg, at 0.5, 2 hr and 8 hr) was “maximal inhibition achieved”.
